How the values were obtained:
[1] = Urine pharmacokinetics (Ae0–24, CLR) after a single oral dose of rucaparib 600 mg in patients with advanced solid tumors; assay type: in vivo, human; conditions: single oral rucaparib 600 mg; for Ae0–24, GM / Ae0–24, Mean (SD) / Ae0–24, Median (min–max): urine
Excerpt: Stable deuterium-labeled analytes were used as internal standards.
PK parameters were estimated from the concentration–time profiles.

[2] = human, in vivo
Protocol: (§1) In Part 1, patients received a single oral dose of rucaparib 600 mg on day 1; PK samples were collected and safety monitored through day 7.
(§2) Sample collection, processing, and shipping were conducted according to standardized protocols shared across study sites. Plasma samples were collected for PK analysis at the predose assessment and at 1, 2, 3, 4, 8, 12, 24, 48, 72, 96, 120, and 144 h postdose. A predose urine sample was collected less than 12 h prior to study drug administration. Total urine was collected 0–12 h and 12–24 h postdose. Total (bound and unbound) concentrations of rucaparib and its metabolite M324 in plasma and urine samples were determined by Q Squared Solutions BioSciences (Ithaca, NY, USA) using validated liquid chromatography mass spectrometry/mass spectrometry methods. Stable deuterium-labeled analytes were used as internal standards. The assay calibration ranges for plasma samples were 5–10,000 ng/mL for rucaparib and 1–1000 ng/mL for M324 with lower limits of quantification (LLOQ) of 5.00 and 1.00 ng/mL, respectively. For urine samples, the calibration range was 500–50,000 ng/mL for both rucaparib and M324, with a LLOQ of 500 ng/mL for both analytes. The precision was within 9.3% CV, and the accuracy was within ± 6.2%.
(§3) PK parameters were estimated from the concentration–time profiles. Actual elapsed time after dosing was used to estimate plasma PK parameters based on noncompartmental methods using Phoenix® WinNonlin® version 8.1.0 (Certara USA, Inc., Princeton, NJ, USA). […] Exploratory PK parameters for M324 calculated based on plasma and urine concentration-time data were Cmax, AUC0–last, AUC0–inf, t1/2, tmax, Ae0–24, and CLR, as data allowed.
(§4) PK parameters were calculated by noncompartmental analysis, analyzed using descriptive statistics, and presented by hepatic functional status. Analysis of variance (ANOVA) was used to compare PK parameters (e.g., Cmax, AUC0–last, and AUC0–inf) between the normal hepatic function group and the moderate hepatic impairment group per NCI-ODWG criteria. PK values were log-transformed before analysis. Baseline covariates (e.g., creatinine clearance [CLcr], sex, age, BMI, and ECOG PS) were tested for any significant effect (P value < 0.05). Geometric least-squares means were used to calculate the ratios of the PK parameters in the hepatic impairment group to those in the control group, along with 90% confidence intervals (CIs). The Wilcoxon rank-sum test was used to compare tmax values between the two groups, and estimates of the median differences were determined, along with 90% CIs. In addition, the relationships between log-transformed PK parameters (AUC0–last, AUC0–inf, Cmax) for rucaparib and M324 and hepatic function parameters (bilirubin and aspartate aminotransferase [AST]) relevant to the classification of hepatic impairment according to NCI-ODWG were explored by a linear regression approach.

[3] = cited from earlier work
[4] = ref unpublished results; cited from earlier work
PARP [5] = conditions: cited from earlier work
PARP [6] = system: PARP; design: method as in earlier work; conditions: cited from earlier work
[7] = Plasma pharmacokinetics after a single oral dose of rucaparib 600 mg in patients with advanced solid tumors, by hepatic function group; conditions: for AUC0–last, Geometric LS means / Cmax, Geometric LS means: ANOVA; for AUC0–inf, GM / AUC0–inf, Mean (SD) / AUC0–inf, Median (min–max) / AUC0–last, GM / AUC0–last, Mean (SD) / AUC0–last, Median (min–max) / Cmax, GM / Cmax, Mean (SD) / Cmax, Median (min–max) / tmax, Median (min–max): single oral rucaparib 600 mg
Protocol: as §1, §2, §3, §4

[8] = Child–Pugh mild hepatic impairment
[9] = Child–Pugh moderate hepatic impairment
[10] = Child–Pugh severe hepatic impairment
[11] = NCI-ODWG moderate hepatic impairment
[12] = NCI-ODWG normal hepatic function
[13] = NCI-ODWG moderate hepatic impairment (n = 8)
[14] = NCI-ODWG normal hepatic function (n = 8)
[15] = linear regression of log-transformed PK parameter on hepatic function parameter (NCI-ODWG)

SMILES: O=C(O)c1ccc(-c2[nH]c3cc(F)cc4c3c2CCNC4=O)cc1 [M324]
- CLR, GM [1, 8]: 119 mL/min
- CLR, Mean (SD) [1, 8]: 121 (26.2) mL/min
- CLR, Median (min–max) [1, 8]: 114 (94.7–161) mL/min
- CLR, GM [1, 9]: 68.5 mL/min
- CLR, Mean (SD) [1, 9]: 90.5 (55.6) mL/min
- CLR, Median (min–max) [1, 9]: 104 (12.7–163) mL/min
- CLR, GM [1, 10]: 24.8 mL/min
- CLR, Mean (SD) [1, 10]: 39.3 (43.1) mL/min
- CLR, Median (min–max) [1, 10]: 39.3 (8.84–69.8) mL/min
- CLR, GM [1, 11]: 47.7 mL/min
- CLR, Mean (SD) [1, 11]: 72.7 (57.6) mL/min
- CLR, Median (min–max) [1, 11]: 69.8 (8.84–163) mL/min
- CLR, GM [1, 12]: 118 mL/min
- CLR, Mean (SD) [1, 12]: 120 (24.0) mL/min
- CLR, Median (min–max) [1, 12]: 113 (96.7–161) mL/min
- Ae0–24, GM [1, 8]: 13.1 mg
- Ae0–24, Mean (SD) [1, 8]: 16.1 (11.9) mg
- Ae0–24, Median (min–max) [1, 8]: 14.5 (4.77–40.9) mg
- Ae0–24, GM [1, 9]: 4.33 mg
- Ae0–24, Mean (SD) [1, 9]: 5.44 (4.06) mg
- Ae0–24, Median (min–max) [1, 9]: 4.29 (1.46–12.8) mg
- Ae0–24, GM [1, 10]: 1.37 mg
- Ae0–24, Mean (SD) [1, 10]: 1.38 (0.193) mg
- Ae0–24, Median (min–max) [1, 10]: 1.38 (1.24–1.51) mg
- Ae0–24, GM [1, 11]: 3.61 mg
- Ae0–24, Mean (SD) [1, 11]: 5.46 (4.96) mg
- Ae0–24, Median (min–max) [1, 11]: 2.88 (1.24–12.8) mg
- Ae0–24, GM [1, 12]: 10.0 mg
- Ae0–24, Mean (SD) [1, 12]: 13.7 (12.3) mg
- Ae0–24, Median (min–max) [1, 12]: 10.9 (3.47–40.9) mg
- AUC0–last, Geometric mean ratio Moderate/normal (90% CI) [2]: 1.483 (0.766–2.868)
- Cmax, Geometric mean ratio Moderate/normal (90% CI) [2]: 1.055 (0.529–2.105)
- formation of M324, share of total clearance of rucaparib [3]: ~ 1/3
- plasma protein binding [4]: 91%
- biological activity, in vitro PARP inhibition data (PARP [5]): not biologically active
- activity in in vitro target binding affinity and cytotoxicity assay (PARP [6]): inactive
- AUC0–last, Geometric LS means [7, 13]: 5930 h⋅ng/mL
- Cmax, Geometric LS means [7, 13]: 76.7 ng/mL
- AUC0–last, Geometric LS means [7, 14]: 4000 h⋅ng/mL
- Cmax, Geometric LS means [7, 14]: 72.7 ng/mL
- AUC0–inf, GM [7, 8]: 5590 h⋅ng/mL
- AUC0–inf, Mean (SD) [7, 8]: 5800 (1720) h⋅ng/mL
- AUC0–inf, Median (min–max) [7, 8]: 5700 (3960–8340) h⋅ng/mL
- AUC0–last, GM [7, 8]: 4740 h⋅ng/mL
- AUC0–last, Mean (SD) [7, 8]: 5070 (1910) h⋅ng/mL
- AUC0–last, Median (min–max) [7, 8]: 5130 (2330–7890) h⋅ng/mL
- Cmax, GM [7, 8]: 97.9 ng/mL
- Cmax, Mean (SD) [7, 8]: 111 (62.9) ng/mL
- Cmax, Median (min–max) [7, 8]: 98.7 (42.7–235) ng/mL
- tmax, Median (min–max) [7, 8]: 4.00 (3.00–24.0) h
- AUC0–inf, GM [7, 9]: 3580 h⋅ng/mL
- AUC0–inf, Mean (SD) [7, 9]: 3840 (1590) h⋅ng/mL
- AUC0–inf, Median (min–max) [7, 9]: 4190 (2100–5230) h⋅ng/mL
- AUC0–last, GM [7, 9]: 4550 h⋅ng/mL
- AUC0–last, Mean (SD) [7, 9]: 5690 (4710) h⋅ng/mL
- AUC0–last, Median (min–max) [7, 9]: 3810 (1930–15,600) h⋅ng/mL
- Cmax, GM [7, 9]: 57.4 ng/mL
- Cmax, Mean (SD) [7, 9]: 64.1 (33.1) ng/mL
- Cmax, Median (min–max) [7, 9]: 50.9 (28.9–118) ng/mL
- tmax, Median (min–max) [7, 9]: 23.9 (4.03–72.0) h
- AUC0–last, GM [7, 10]: 6840 h⋅ng/mL
- AUC0–last, Mean (SD) [7, 10]: 15,900 (20,200) h⋅ng/mL
- AUC0–last, Median (min–max) [7, 10]: 15,900 (1550–30,200) h⋅ng/mL
- Cmax, GM [7, 10]: 72.5 ng/mL
- Cmax, Mean (SD) [7, 10]: 164 (208) ng/mL
- Cmax, Median (min–max) [7, 10]: 164 (16.9–311) ng/mL
- tmax, Median (min–max) [7, 10]: 73.5 (2.97–144) h
- AUC0–inf, GM [7, 11]: 4960 h⋅ng/mL
- AUC0–inf, Mean (SD) [7, 11]: 4990 (720) h⋅ng/mL
- AUC0–inf, Median (min–max) [7, 11]: 5230 (4190–5570) h⋅ng/mL
- AUC0–last, GM [7, 11]: 5930 h⋅ng/mL
- AUC0–last, Mean (SD) [7, 11]: 8940 (9600) h⋅ng/mL
- AUC0–last, Median (min–max) [7, 11]: 4760 (1550–30,200) h⋅ng/mL
- Cmax, GM [7, 11]: 76.7 ng/mL
- Cmax, Mean (SD) [7, 11]: 105 (91.8) ng/mL
- Cmax, Median (min–max) [7, 11]: 83.7 (16.9–311) ng/mL
- tmax, Median (min–max) [7, 11]: 30.0 (2.97–144) h
- AUC0–inf, GM [7, 12]: 4750 h⋅ng/mL
- AUC0–inf, Mean (SD) [7, 12]: 5220 (2300) h⋅ng/mL
- AUC0–inf, Median (min–max) [7, 12]: 4930 (2100–8340) h⋅ng/mL
- AUC0–last, GM [7, 12]: 4000 h⋅ng/mL
- AUC0–last, Mean (SD) [7, 12]: 4450 (2130) h⋅ng/mL
- AUC0–last, Median (min–max) [7, 12]: 3810 (1930–7890) h⋅ng/mL
- Cmax, GM [7, 12]: 72.7 ng/mL
- Cmax, Mean (SD) [7, 12]: 90.1 (67.4) ng/mL
- Cmax, Median (min–max) [7, 12]: 74.5 (28.9–235) ng/mL
- tmax, Median (min–max) [7, 12]: 10.1 (3.00–24.0) h
- Slope estimate (90% CI), AUC0-last vs AST [7, 15]: 0.001 (–0.001 to 0.004)
- Slope estimate (90% CI), AUC0-last vs Bilirubin [7, 15]: –0.004 (–0.018 to 0.011)
- Slope estimate (90% CI), Cmax vs AST [7, 15]: 0 (–0.002 to 0.003)
- Slope estimate (90% CI), Cmax vs Bilirubin [7, 15]: –0.007 (–0.022 to 0.007)
